According to US8008061B2, “Trophic conversion of obligate phototrophic algae through metabolic engineering” (Martek Biosciences Corporation, priority 2000, dated 2011):

How the values were obtained:
Format in all cases: cell-based
Cylindrotheca fusiformis = assay: Antibiotic sensitivity in diatoms, growth on solid media; conditions: C. fusiformis; for lowest concentration of the antibiotic per ml required for cell death or the highest concentration tested: Table C, 100% I.O. media, 2 weeks of illumination; for lowest concentration of antibiotic per ml required for cell death or the lowest concentration tested: media with reduced salinity, 25% of normal seawater
Protocol: (§1) The diatoms Phaeodactylum tricornutum, Cylindrotheca fusiformis, Cyclotella cryptica and Nitzschia alba were extensively tested for sensitivity to a series of antibiotics for which resistance genes are available, and the lowest concentrations which completely abrogate growth were determined for each antibiotic (Table C). […] These include antibiotics such as G418, Hygromycin, Kanamycin and Spectinomycin, which are routinely utilized for selection of other eukaryotic organisms.
(§2) The effective concentration range of the antibiotic in most cases was lowered by a factor of 10.
(§3) Cells of each diatom species were plated on solid media at salinity equivalents of 25-100% I.O. media, with a gradient of antibiotic concentrations. After 2 weeks of illumination the growth of the cells was assessed and the concentration of antibiotic required for cell death was determined. (Table D).

[1] = tested on: diatoms Phaeodactylum tricornutum, Cylindrotheca fusiformis, Cyclotella cryptica and Nitzschia alba; assay: Antibiotic sensitivity, statements for the diatoms tested together; conditions: for effect on growth of the diatoms: compared to effectiveness in other eukaryotic organisms; for cell death: 100% I.O. media, the diatoms tested
Protocol: as §1, §2, §3

[2] = tested on: Phaeodactylum tricornutum; assay: Antibiotic sensitivity in diatoms, growth on solid media; conditions: P. tricornutum; for lowest concentration of the antibiotic per ml required for cell death or the highest concentration tested: Table C, 100% I.O. media, 2 weeks of illumination
Protocol: as §1, §2, §3

Cyclotella cryptica = assay: as above; conditions: C. cryptica; for lowest concentration of the antibiotic per ml required for cell death or the highest concentration tested: Table C, 100% I.O. media, 2 weeks of illumination
Protocol: as §1, §2
After 2 weeks of illumination the growth of the cells was assessed and the concentration of antibiotic required for cell death was determined. (Table D).

Nitzschia alba = assay: as above; design: unit not given here; conditions: N. alba; Table C; 100% I.O. media; 2 weeks of illumination
Protocol: as §1, §3

How did the “lowest concentration of the antibiotic per ml required for cell death or the highest concentration tested” value (Cylindrotheca fusiformis) turn out when `CN[C@@H]1[C@@H](O)[C@@H](O[C@@H]2[C@@H](O)[C@H](O[C@H]3O[C@H]([C@@H](C)O)[C@@H](O)[C@H](O)[C@H]3N)[C@@H](N)C[C@H]2N)OC[C@]1(C)O` [G418] was run?
The value was greater than 1 mg per ml.

What about the “effect on growth of the diatoms” value [1] of the same compound?
Its value is “no significant effect on growth or were effective only at very high concentrations”.

For Gentamicin, which “lowest concentration of the antibiotic per ml required for cell death or the highest concentration tested” value (Cylindrotheca fusiformis) is on record?
The value was greater than 1 mg per ml.

And the “lowest concentration of the antibiotic per ml required for cell death or the highest concentration tested” value [2]?
The value was greater than 1 mg per ml.

What about the “lowest concentration of the antibiotic per ml required for cell death or the highest concentration tested” value (Cyclotella cryptica) of the same compound?
Its value is greater than 1 mg per ml.

Which results are given for Phleomycin?
lowest concentration of antibiotic per ml required for cell death or the lowest concentration tested (Cylindrotheca fusiformis): <5 mg (25%) mg per ml; lowest concentration of antibiotic per ml required for cell death or the lowest concentration tested ([2]; media with reduced salinity, 25% of normal seawater): <5 mg (25%) mg per ml; lowest concentration of the antibiotic per ml required for cell death or the highest concentration tested (Cyclotella cryptica): 25 mg per ml; lowest concentration of antibiotic per ml required for cell death or the lowest concentration tested (Cyclotella cryptica; media with reduced salinity, 10% of normal seawater): <5 mg (10%) mg per ml; cell death [1]: resulted in cell death

`Cc1c(N)nc([C@H](CC(N)=O)NC[C@H](N)C(N)=O)nc1C(=O)N[C@H](C(=O)N[C@H](C)[C@@H](O)[C@H](C)C(=O)N[C@H](C(=O)NCCC1=N[C@@H](c2nc(C(=O)NCCCCN=C(N)N)cs2)CS1)[C@@H](C)O)[C@@H](O[C@@H]1O[C@@H](CO)[C@@H](O)[C@H](O)[C@@H]1O[C@H]1O[C@H](CO)[C@@H](O)[C@H](OC(N)=O)[C@@H]1O)c1cnc[nH]1` [Zeocin] was tested. Which “lowest concentration of the antibiotic per ml required for cell death or the highest concentration tested” value (Cyclotella cryptica) did it give?
Its value is 250 mg per ml.

And the “lowest concentration of the antibiotic per ml required for cell death or the highest concentration tested” value (Nitzschia alba)?
Its value is greater than 250.

And the cell death [1]?
The cell death was “resulted in cell death”.

Which results are given for Neomycin?
lowest concentration of the antibiotic per ml required for cell death or the highest concentration tested (Cylindrotheca fusiformis): >1 mg per ml; lowest concentration of the antibiotic per ml required for cell death or the highest concentration tested (Cyclotella cryptica): >1 mg per ml; lowest concentration of the antibiotic per ml required for cell death or the highest concentration tested (Nitzschia alba): >1

Which “lowest concentration of the antibiotic per ml required for cell death or the highest concentration tested” value (Cylindrotheca fusiformis) does the source give for Bleomycin here?
The value was greater than 50 mg per ml.

How did the “lowest concentration of the antibiotic per ml required for cell death or the highest concentration tested” value (Cylindrotheca fusiformis) turn out when `O=C(N[C@H](CO)[C@H](O)c1ccc([N+](=O)[O-])cc1)C(Cl)Cl` [Chloramphenicol] was run?
The value was 100 mg per ml.

What about the “lowest concentration of the antibiotic per ml required for cell death or the highest concentration tested” value [2] of the same compound?
The value was 200 mg per ml.

And the “lowest concentration of the antibiotic per ml required for cell death or the highest concentration tested” value (Cyclotella cryptica)?
The value was 50 mg per ml.

What does the source list for Nourseothricin?
lowest concentration of the antibiotic per ml required for cell death or the highest concentration tested (Cylindrotheca fusiformis): >250 mg per ml; lowest concentration of antibiotic per ml required for cell death or the lowest concentration tested (Cylindrotheca fusiformis): <10 mg (25%) mg per ml; lowest concentration of the antibiotic per ml required for cell death or the highest concentration tested (Cyclotella cryptica): >250 mg per ml; lowest concentration of the antibiotic per ml required for cell death or the highest concentration tested (Nitzschia alba): >250

How did the “lowest concentration of the antibiotic per ml required for cell death or the highest concentration tested” value (Cylindrotheca fusiformis) turn out when `CN[C@@H]1[C@H](O)[C@H](NC)[C@H]2O[C@@]3(O)C(=O)C[C@@H](C)O[C@H]3O[C@@H]2[C@H]1O` [Spectinomycin] was run?
The value was greater than 1 mg per ml.

What about the “lowest concentration of the antibiotic per ml required for cell death or the highest concentration tested” value (Cyclotella cryptica) of the same compound?
The value was greater than 1 mg per ml.

And the “effect on growth of the diatoms” value [1]?
Its value is “no significant effect on growth or were effective only at very high concentrations”.

Which results are given for `[H]/N=C(/N)N[C@H]1[C@H](O)[C@@H](O)[C@H](O[C@@H]2O[C@@H](C)[C@](O)(C=O)[C@H]2O[C@@H]2O[C@@H](CO)[C@H](O)[C@@H](O)[C@@H]2NC)[C@@H](N/C(N)=N\[H])[C@@H]1O` [Streptomycin]?
lowest concentration of the antibiotic per ml required for cell death or the highest concentration tested (Cylindrotheca fusiformis): >1 mg per ml; lowest concentration of the antibiotic per ml required for cell death or the highest concentration tested [2]: >1 mg per ml; lowest concentration of the antibiotic per ml required for cell death or the highest concentration tested (Cyclotella cryptica): >1 mg per ml

`CC[C@H]1OC(=O)[C@H](C)[C@@H](O[C@H]2C[C@@](C)(OC)[C@@H](O)[C@H](C)O2)[C@H](C)[C@@H](O[C@@H]2O[C@H](C)C[C@H](N(C)C)[C@H]2O)[C@](C)(O)C[C@@H](C)C(=O)[C@H](C)[C@@H](O)[C@]1(C)O` [Erythromycin] was tested. Which “lowest concentration of the antibiotic per ml required for cell death or the highest concentration tested” value (Cylindrotheca fusiformis) did it give?
The value was 100 mg per ml.

What about the “lowest concentration of the antibiotic per ml required for cell death or the highest concentration tested” value [2] of the same compound?
Its value is 100 mg per ml.

What about the “lowest concentration of the antibiotic per ml required for cell death or the highest concentration tested” value (Cyclotella cryptica) of the same compound?
Its value is 50 mg per ml.

`COc1ccc(C[C@H](N)C(=O)N[C@H]2[C@@H](O)[C@H](n3cnc4c(N(C)C)ncnc43)O[C@@H]2CO)cc1` [Puromycin] was tested. Which “lowest concentration of the antibiotic per ml required for cell death or the highest concentration tested” value (Cylindrotheca fusiformis) did it give?
Its value is 100 mg per ml.

And the “lowest concentration of the antibiotic per ml required for cell death or the highest concentration tested” value [2]?
The value was 200 mg per ml.

What about the “lowest concentration of the antibiotic per ml required for cell death or the highest concentration tested” value (Cyclotella cryptica) of the same compound?
The value was 100 mg per ml.

`NC[C@H]1O[C@H](O[C@H]2[C@H](O)[C@@H](O[C@H]3O[C@H](CO)[C@@H](O)[C@H](N)[C@H]3O)[C@H](N)C[C@@H]2N)[C@H](O)[C@@H](O)[C@@H]1O` [Kanamycin] was tested. Which “lowest concentration of the antibiotic per ml required for cell death or the highest concentration tested” value (Cylindrotheca fusiformis) did it give?
The value was greater than 1 mg per ml.

And the “lowest concentration of the antibiotic per ml required for cell death or the highest concentration tested” value [2]?
Its value is greater than 1 mg per ml.

And the “lowest concentration of the antibiotic per ml required for cell death or the highest concentration tested” value (Cyclotella cryptica)?
Its value is greater than 1 mg per ml.
